Reference: patent US10836725B2, “Modulators of the integrated stress pathway” (Calico Life Sciences LLC, priority 2016, dated 2020)

System: ATF4 luciferase reporter
Assay: ATF4-Luc assay in HEK293T cells carrying the ATF4 luciferase reporter (in vitro model of VWMD)
Format: cell-based, human
Conditions: Homo sapiens, HEK-293T, 1 μg/mL tunicamycin, 7 hours, luminescence (One Glo)
Summary of the method: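 Stable HEK293T line with human ATF4 5′-UTR–firefly luciferase reporter treated with 1 μg/mL tunicamycin plus 200 nM compound for 7 h. Luminescence read; EC50 derived.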

| SMILES | EC50 |
| --- | --- |
| Cc1ccsc1CNC(=O)C12CC(NC(=O)COc3ccc(Cl)c(F)c3)(C1)C2 [Compound 192, 3-[2-(4-chloro-3-fluorophenoxy)acetamido]-N-[(3-methylthiophen-2-yl)methyl]bicyclo[1.1.1]pentane-1-carboxamide] | > 2 µM |
| COc1cc(F)cc(CNC(=O)C23CC(NC(=O)COc4ccc(Cl)c(F)c4)(C2)C3)c1 [Compound 209, 3-[2-(4-chloro-3-fluorophenoxy)acetamido]-N-[(3-fluoro-5-methoxyphenyl)methyl]bicyclo[1.1.1]pentane-1-carboxamide] | > 2 µM |
| Cc1ccc(CNC(=O)C23CC(NC(=O)COc4ccc(Cl)c(F)c4)(C2)C3)nc1 [Compound 168, 3-[2-(4-chloro-3-fluorophenoxy)acetamido]-N-[(5-methylpyridin-2-yl)methyl]bicyclo[1.1.1]pentane-1-carboxamide] | 1 to 2 µM |
| O=C(COc1ccc(Cl)c(F)c1)NC12CC(C(=O)NCc3c(F)cc(Cl)cc3F)(C1)C2 [Compound 181, N-[(4-chloro-2,6-difluorophenyl)methyl]-3-[2-(4-chloro-3-fluorophenoxy)acetamido]bicyclo[1.1.1]pentane-1-carboxamide] | > 2 µM |
| O=C(COc1ccc(Cl)c(F)c1)NC12CC(C(=O)NCc3ccc(C(F)(F)F)nc3)(C1)C2 [Compound 149, 3-[2-(4-chloro-3-fluorophenoxy)acetamido]-N-{[6-(trifluoromethyl)pyridin-3-yl]methyl}bicyclo[1.1.1]pentane-1-carboxamide] | 0.25 to 0.5 µM |
| Cc1ccc(CNC(=O)C23CC(NC(=O)COc4ccc(Cl)c(F)c4)(C2)C3)c(C)n1 [Compound 251, 3-[2-(4-chloro-3-fluorophenoxy)acetamido]-N-[(2,6-dimethylpyridin-3-yl)methyl]bicyclo[1.1.1]pentane-1-carboxamide] | > 2 µM |
| O=C(COc1ccc(Cl)c(F)c1)NC12CC(C(=O)NCc3ccccc3F)(C1)C2 [Compound 210, 3-[2-(4-chloro-3-fluorophenoxy)acetamido]-N-[(2-fluorophenyl)methyl]bicyclo[1.1.1]pentane-1-carboxamide] | > 2 µM |
| Cc1cc(CNC(=O)C23CC(NC(=O)COc4ccc(Cl)c(F)c4)(C2)C3)c(C)o1 [Compound 160, 3-[2-(4-chloro-3-fluorophenoxy)acetamido]-N-[(2,5-dimethylfuran-3-yl)methyl]bicyclo[1.1.1]pentane-1-carboxamide] | > 2 µM |
| Cc1ccc(OCCNC(=O)C23CC(NC(=O)COc4ccc(Cl)cc4)(C2)C3)cc1 [Compound 105, 3-[2-(4-chlorophenoxy)acetamido]-N-[2-(4-methylphenoxy)ethyl]bicyclo-[1.1.1]pentane-1-carboxamide] | 0.5 to 1 µM |
| O=C(COc1ccc(Cl)c(F)c1)NC12CC(C(=O)NCc3nnc4n3CCCC4)(C1)C2 [Compound 223, 3-[2-(4-chloro-3-fluorophenoxy)acetamido]-N-[(5,6,7,8-tetrahydro[1,2,4]triazolo[4,3-a]pyridin-3-yl)methyl]bicyclo[1.1.1]pentane-1-carboxamide] | > 2 µM |
| O=C(COc1ccc(Cl)c(F)c1)NC12CC(C(=O)NCc3ccon3)(C1)C2 [Compound 235, 3-[2-(4-chloro-3-fluorophenoxy)acetamido]-N-[(1,2-oxazol-3-yl]methyl]bicyclo[1.1.1]pentane-1-carboxamide] | > 2 µM |
| CN(C)c1ccc(CNC(=O)C23CCC(NC(=O)COc4ccc(Cl)c(F)c4)(CC2)CC3O)cc1 (stereo not drawn) [Compound 134, 4-[2-(4-chloro-3-fluorophenoxy)acetamido]-N-{[4-(dimethylamino)phenyl]methyl}-2-hydroxybicyclo[2.2.2]octane-1-carboxamide] | < 0.25 µM |
| O=C(COc1ccc(Cl)c(F)c1)NC12CC(C(=O)NCc3cc(F)cc(C(F)(F)F)c3)(C1)C2 [Compound 231, 3-[2-(4-chloro-3-fluorophenoxy)acetamido]-N-{[3-fluoro-5-(trifluoromethyl)phenyl]methyl}bicyclo[1.1.1]pentane-1-carboxamide] | > 2 µM |
| O=C(COc1ccc(Cl)c(F)c1)NC12CCC(C(=O)NCc3ccc(OC(F)(F)F)cc3)(CC1)C(O)C2 (stereo not drawn) [Compound 133, 4-[2-(4-chloro-3-fluorophenoxy)acetamido]-2-hydroxy-N-{[4-(trifluoromethoxy)phenyl]methyl}bicyclo[2.2.2]octane-1-carboxamide] | < 0.25 µM |
| O=C(COc1ccc(Cl)c(F)c1)NC12CC(C(=O)NCc3ccc(F)c(F)c3)(C1)C2 [Compound 185, 3-[2-(4-chloro-3-fluorophenoxy)acetamido]-N-[(3,4-difluorophenyl)methyl]bicyclo[1.1.1]pentane-1-carboxamide] | > 2 µM |

The next lines start with the values.

| EC50 | SMILES |
| --- | --- |
| > 2 µM | O=C(COc1ccc(Cl)c(F)c1)NC12CC(C(=O)NCc3ccc(Cl)c(Cl)c3)(C1)C2 [Compound 241, 3-[2-(4-chloro-3-fluorophenoxy)acetamido]-N-[(3,4-dichlorophenyl]methyl]bicyclo[1.1.1]pentane-1-carboxamide] |
| < 0.25 µM | O=C(COc1ccc(Cl)c(F)c1)NC12CCC(C(=O)NCc3ccc(Cl)cc3)(CC1)C(O)C2 (stereo not drawn) [Compound 132, 4-[2-(4-chloro-3-fluorophenoxy)acetamido]-N-[(4-chlorophenyl)methyl]-2-hydroxybicyclo[2.2.2]octane-1-carboxamide] |
| < 0.25 µM | O=C(COc1ccc(Cl)c(F)c1)NC12CCC(C(=O)NCCOc3ccc(Cl)cc3)(CC1)C(O)C2 (stereo not drawn) [Compound 107, 4-[2-(4-chloro-3-fluorophenoxy)acetamido]-N-[2-(4-chlorophenoxy)ethyl]-2-hydroxybicyclo[2.2.2]octane-1-carboxamide] |
| 0.25 to 0.5 µM | O=C(COc1ccc(Cl)c(F)c1)NC12CCC(C(=O)NCc3cccc(F)c3)(CC1)C(O)C2 (stereo not drawn) [Compound 129, 4-[2-(4-chloro-3-fluorophenoxy)acetamido]-N-[(3-fluorophenyl)methyl]-2-hydroxybicyclo[2.2.2]octane-1-carboxamide] |
| 0.25 to 0.5 µM | O=C(COc1ccc(Cl)cc1)NC12CC(C(=O)NCCOc3ccc(F)cc3)(C1)C2 [Compound 102, 3-[2-(4-chlorophenoxy)acetamido]-N-[2-(4-fluorophenoxy)ethyl]bicyclo[1.1.1]-pentane-1-carboxamide] |
| < 0.25 µM | O=C(COc1ccc(Cl)c(F)c1)NC12CC(C(=O)NCc3ccc(C(F)(F)F)cn3)(C1)C2 [Compound 118, 3-[2-(4-chloro-3-fluorophenoxy)acetamido]-N-{[5-(trifluoromethyl)pyridin-2-yl]methyl}bicyclo[1.1.1]pentane-1-carboxamide] |
| > 2 µM | O=C(COc1ccc(Cl)c(F)c1)NC12CC(C(=O)NCc3cccc(OC(F)F)c3)(C1)C2 [Compound 250, 3-[2-(4-chloro-3-fluorophenoxy)acetamido]-N-{[3-(difluoromethoxy)phenyl]methyl}bicyclo[1.1.1]pentane-1-carboxamide] |
| 1 to 2 µM | Cc1cnc(CNC(=O)C23CCC(NC(=O)COc4ccc(Cl)c(F)c4)(CC2)CC3O)cn1 (stereo not drawn) [Compound 119, 4-[2-(4-chloro-3-fluorophenoxy)acetamido]-2-hydroxy-N-[(5-methylpyrazin-2-yl)methyl]bicyclo[2.2.2]octane-1-carboxamide] |
| 1 to 2 µM | Cc1cc(CCNC(=O)C23CC(NC(=O)COc4ccc(Cl)c(F)c4)(C2)C3)cc(C)n1 [Compound 211, 3-[2-(4-chloro-3-fluorophenoxy)acetamido]-N-[2-(2,6-dimethylpyridin-4-yl)ethyl]bicyclo[1.1.1]pentane-1-carboxamide] |
